Marks after values point to notes of the source that are not given here.
Assays:
[1] = tested on: BaF3 EML-4-ALK-L1196M xenograft tumor; experiment: Pharmacodynamic experiment in vivo, subcutaneous xenograft model; parameters: species or system BALB/c nude mouse
Method: The model used in this trial was an engineered BALB/c nude mouse subcutaneous xenograft model of BaF3 EML-4-ALK-L1196M cells. Suspension culture of engineered BaF3 cells were carried out in vitro. […] Cell passage was processed twice a week. When the number of cells reached the requirement, the cells were collected, counted, diluted into a tumor cell suspension with a concentration of 1×10^7/ml with PBS, and carried to the animal room in an ice box for direct injection and inoculation. A 1 mL syringe was used to take the above-mentioned prepared tumor cell suspension with a concentration of 1×10^7/ml, and the tumor cell suspension was injected subcutaneously into the left forelimb armpit of the dorsal side of the mouse, 0.25 mL for each inoculation site. When the average volume of tumors reached about 160 mm^3, the drug was administered for each group, 15 mice in the vehicle group and 10 mice in each of the other administration groups.
Mode and frequency of administration: oral gavage administration, the volume of administration was 10 mL/kg, and the model group was given an equal volume of vehicle. It was administered 1 time a day for 14 consecutive days.
The mental, active, eating and other general conditions of the mice were observed every day, and the body weight was measured 3 times a week, and the short diameter (a) and long diameter (b) of the tumor of each mouse were measured with vernier calipers 3 times a week, and the tumor volume was calculated according to the formula (a^2×b)/2. The relative tumor volume (RTV) was calculated from the measured calculated tumor volume, RTV=Vt/V0. Wherein V0 was the tumor volume at randomization (i.e., d0) and Vt was the tumor volume at each measurement (i.e., dn). The relative tumor proliferation rate of anti-tumor activity evaluation index was calculated according to the following formula: relative tumor proliferation rate T/C (%): […]
(Note: TRTV: RTV in the treatment group; CRTV: RTV in the model control group. According to the evaluation criteria for efficacy in the “Technical Guidelines for Non-clinical Research of Cytotoxic Antitumor Drugs” issued by the National Medical Products Administration of China, T/C %≤40% is effective).

[2] = Comparative experiment of hygroscopicity (Chinese Pharmacopoeia 2020); format: physicochemical; settings: dihydrate
Source text: The description of hygroscopic characteristics and the definition of hygroscopic weight gain are as follows: • Deliquescence: absorbs sufficient amount of water to form a liquid; • Very hygroscopic: the weight gain by hygroscopy is not less than 15%; • Hygroscopic: the weight gain by hygroscopy is less than 15% but not less than 2%; • Slightly hygroscopic: the weight gain by hygroscopy is less than 2% but not less than 0.2%; and
Not or almost not hygroscopic: the weight gain by hygroscopy is less than 0.2% from hygroscopicity.

[3] = Variable temperature XRPD of crystal form 1; format: physicochemical
Method: The crystalline form 1 was tested on a hot-stage XRPD detection instrument to test the XRPD patterns under different temperature conditions, as shown in FIG. 8.

[4] = Vacuum drying stability test; format: physicochemical
[5] = Stability test 1: open solvent atmosphere, XRPD; format: physicochemical; settings: room temperature
[6] = Stability test 2: different temperature and humidity conditions, XRPD; format: physicochemical
[7] = Stability test 3: long-term and accelerated conditions; format: physicochemical
[8] = High temperature and illumination stability test of crystal forms 1-3; format: physicochemical
Source text: The stabilities of crystal form 2 and crystal form 3 under high temperature, illumination and long-term conditions were investigated.

[9] = as above; format: physicochemical; settings: Illumination (illuminance: 5000Lx), Day 0 (Table 18-1)
[10] = 30 mg/kg oral gavage 1 time a day, Day 3
[11] = 30 mg/kg oral gavage 1 time a day, Day 5
[12] = 30 mg/kg oral gavage 1 time a day, Day 7
[13] = 30 mg/kg oral gavage 1 time a day, Day 10
[14] = 30 mg/kg oral gavage 1 time a day, Day 12
[15] = 30 mg/kg oral gavage 1 time a day, Day 14
[16] = 30 mg/kg oral gavage once a day, D14
[17] = 40 mg/kg oral gavage 1 time a day, Day 3
[18] = 40 mg/kg oral gavage 1 time a day, Day 5
[19] = 40 mg/kg oral gavage 1 time a day, Day 7
[20] = 40 mg/kg oral gavage 1 time a day, Day 10
[21] = 40 mg/kg oral gavage 1 time a day, Day 12
[22] = 40 mg/kg oral gavage 1 time a day, Day 14
[23] = 40 mg/kg oral gavage once a day, D14
[24] = 6 months under long-term and accelerated conditions
[25] = High temperature (50° C.), Day 10, dihydrate
[26] = High temperature (50° C.), Day 30, dihydrate
[27] = Illumination (illuminance: 5000Lx), Day 10, dihydrate
[28] = Illumination (illuminance: 5000Lx), Day 30, dihydrate

## COc1cc(N2CCC(N3CCN(C)CC3)CC2)c(C)cc1Nc1ncc(Br)c(Nc2ccc(C)cc2P(C)(C)=O)n1 [Crystal form 1, (2-((5-bromo-2-((2-methoxy-5-methyl-4-(4-(4-methylpiperazin-1-yl)piperidin-1-yl)phenyl)amino)pyrimidin-4-yl)amino)-5-methylphenyl)dimethylphosphorus oxide dihydrate]
[1]; 30 mg/kg oral gavage 1 time a day, Day 0
  Tumor volume: 160 mm^3
[1]; [10]
  Relative tumor proliferation rate T/C: 28.53▴▴ %
  Tumor volume: 102 mm^3
[1]; [11]
  Relative tumor proliferation rate T/C: 16.41▴▴ %
  Tumor volume: 89 mm^3
[1]; [12]
  Relative tumor proliferation rate T/C: 8.23▴▴ %
  Tumor volume: 75 mm^3
[1]; [13]
  Relative tumor proliferation rate T/C: 6.61▴▴ %
  Tumor volume: 91 mm^3
[1]; [14]
  Relative tumor proliferation rate T/C: 6.34▴▴ %
  Tumor volume: 109 mm^3
[1]; [15]
  Relative tumor proliferation rate T/C: 4.85▴▴ %
  Tumor volume: 101 mm^3
[1]; [16]
  Tumor volume: 101 mm^3
  relative tumor proliferation rate T/C %: 4.85%
[1]; 40 mg/kg oral gavage 1 time a day, Day 0
  Tumor volume: 159 mm^3
[1]; [17]
  Relative tumor proliferation rate T/C: 23.88▴▴ %
  Tumor volume: 83 mm^3
[1]; [18]
  Relative tumor proliferation rate T/C: 10.09▴▴ %
  Tumor volume: 52 mm^3
[1]; [19]
  Relative tumor proliferation rate T/C: 5.93▴▴ %
  Tumor volume: 49 mm^3
[1]; [20]
  Relative tumor proliferation rate T/C: 4.45▴▴ %
  Tumor volume: 60 mm^3
[1]; [21]
  Relative tumor proliferation rate T/C: 3.28▴▴ %
  Tumor volume: 55 mm^3
[1]; [22]
  Relative tumor proliferation rate T/C: 2.34▴▴ %
  Tumor volume: 49 mm^3
[1]; [23]
  Tumor volume: 49 mm^3
  relative tumor proliferation rate T/C %: 2.34%
[1]; oral gavage once a day for 14 days, crystal form 1 30 and 40 mg/kg, compound 1 of WO2021073498A1 30.2 and 40.2 mg/kg
  effect on the growth of BaF3 EML-4-ALK-L1196M xenograft tumor: significantly inhibit the growth
[2]; class by weight gain after 24 h
  Hygroscopicity: Not or almost not hygroscopic (the weight gain by hygroscopy is less than 0.2% from hygroscopicity)
[2]; hygroscopicity test, 24 h
  Weight gain % after 24 h: 0.16%
[3]; 50° C.
  crystal form on hot-stage XRPD: remained unchanged
[3]; 80° C. and 120° C.
  crystal form on hot-stage XRPD: lost two moles of crystal water
[4]; vacuum dried at 35° C.
  crystal form after vacuum drying: had not been transformed
[4]; vacuum drying at 35° C. for 24 h
  moisture content after vacuum drying: 5.26%
[5]; Acetone atmosphere
  Analysis of result (XRPD) Day 4: Crystal form 1
  Analysis of result (XRPD) Day 6: Crystal form 1
[5]; Ethanol atmosphere
  Analysis of result (XRPD) Day 4: Crystal form 1
  Analysis of result (XRPD) Day 6: Crystal form 1
[5]; Ethyl acetate atmosphere
  Analysis of result (XRPD) Day 4: Crystal form 1
  Analysis of result (XRPD) Day 6: Crystal form 1
[5]; Tetrahydrofuran atmosphere
  Analysis of result (XRPD) Day 4: Crystal form 1
  Analysis of result (XRPD) Day 6: Crystal form 1
[6]; 25° C.-60% RH
  Analysis of result of Day 4 (XRPD): Crystal form 1
  Analysis of result of Day 6 (XRPD): Crystal form 1
  Analysis of result of Day 11 (XRPD): Crystal form 1
[6]; 40° C.-75% RH
  Analysis of result of Day 4 (XRPD): Crystal form 1
  Analysis of result of Day 6 (XRPD): Crystal form 1
  Analysis of result of Day 11 (XRPD): Crystal form 1
[6]; RT-12% RH
  Analysis of result of Day 4 (XRPD): Crystal form 1
  Analysis of result of Day 6 (XRPD): Crystal form 1
  Analysis of result of Day 11 (XRPD): Crystal form 1
[6]; RT-58% RH
  Analysis of result of Day 4 (XRPD): Crystal form 1
  Analysis of result of Day 6 (XRPD): Crystal form 1
  Analysis of result of Day 11 (XRPD): Crystal form 1
[6]; RT-97% RH
  Analysis of result of Day 4 (XRPD): Crystal form 1
  Analysis of result of Day 6 (XRPD): Crystal form 1
  Analysis of result of Day 11 (XRPD): Crystal form 1
[7]; [24]
  maximum single impurity: ≤ 0.07%
  total impurities after 6 months of placement compared with Day 0: had not increased
[7]; Acceleration (40° C. ± 2° C., 75% RH ± 10% RH), Day 0
  Traits: off-white
[7]; Acceleration (40° C. ± 2° C., 75% RH ± 10% RH), Month 6
  Traits: off-white
[7]; Acceleration (40° C. ± 2° C., 75% RH ± 10% RH, exposed to air and away from light), Day 0
  Crystal form (XRPD): form 1
[7]; Acceleration (40° C. ± 2° C., 75% RH ± 10% RH, exposed to air and away from light), Day 10
  Crystal form (XRPD): form 1
[7]; Acceleration (40° C. ± 2° C., 75% RH ± 10% RH, exposed to air and away from light), Month 6
  Crystal form (XRPD): form 1
[7]; Long-term (25° C. ± 2° C., 65% RH ± 10% RH), Day 0, dihydrate
  Traits: off-white
[7]; Long-term (25° C. ± 2° C., 65% RH ± 10% RH), Month 6
  Traits: off-white
[7]; Long-term (25° C. ± 2° C., 65% RH ± 10% RH, exposed to air and away from light), Day 0
  Crystal form (XRPD): form 1
[7]; Long-term (25° C. ± 2° C., 65% RH ± 10% RH, exposed to air and away from light), Day 10
  Crystal form (XRPD): form 1
[7]; Long-term (25° C. ± 2° C., 65% RH ± 10% RH, exposed to air and away from light), Month 6
  Crystal form (XRPD): form 1
[8]; Day 0, dihydrate
  Traits: off-white
  purity: purity: 99.66%
  total impurities: impurities: 0.34%
[8]; Day 0, reporting limit per ICHQ3B
  the number of impurities above the reporting limit: limit is 4 total
[8]; [25]
  Traits: off-white
  purity: purity: 99.65%;
  the number of impurities above the reporting limit: limit is 5; total
  total impurities: impurities: 0.35%
[8]; [26]
  Traits: off-white
  purity: purity: 99.53%;
  the number of impurities above the reporting limit: limit is 6; total
  total impurities: impurities: 0.47%
[8]; Illumination (illuminance: 5000Lx), Day 10 (Table 18-1), dihydrate
  Traits: off-white
[8]; [27]
  Traits: off-white
  purity: purity: 99.65%;
  the number of impurities above the reporting limit: limit is 5; total
  total impurities: impurities: 0.35%
[8]; [28]
  Traits: off-white
  purity: purity: 99.60%;
  the number of impurities above the reporting limit: limit is 6; total
  total impurities: impurities: 0.40%
[9]
  Traits: off-white
